# Data taken from publication PMC6954543, “A window-of-opportunity trial of the CXCR1/2 inhibitor reparixin in operable HER-2-negative breast cancer” (Breast Cancer Research : BCR, 2020).
# How the values were obtained:
# [1] = Safety of oral reparixin in window-of-opportunity trial (TEAEs, ANC); type: in vivo, human
# From the text: In this single-arm, monotherapy trial (NCT01861054), female patients aged ≥ 18 years with HER-2-negative operable breast cancer (with a clinical diameter of ≥ 2 cm) that were not candidates for neoadjuvant therapy were recruited. The protocol was amended later to allow inclusion of patients with HER-2-negative operable breast cancer with a clinical diameter of > 1 cm, not eligible for neoadjuvant treatment. Patients needed to have previously untreated, histologically proven (per local investigator assessment) ER+ and/or PgR+ or ER−/PgR− breast cancer (i.e., triple-negative BC (TNBC)) with adequate organ function.
# Patients were requested to take reparixin, an investigational orally available CXCR1/2 inhibitor, as two immediate-release 500-mg oral tablets every 6 to 8 h (every 8 h on the days of PK sampling) with food (a light meal or snack), for 21 consecutive days before surgery.
# Descriptive statistics were used to summarize safety variables (i.e., adverse events, physical examination, vital signs, ECG, laboratory data, concomitant medications).
# [2] = Pharmacokinetics of single-agent oral reparixin in plasma; type: in vivo, human
# Method: Samples for pharmacokinetics (PK) were collected at selected sites in consenting patients. Venous blood samples (6 mL) were collected from a forearm vein at times 0.0, 0.25, 0.5, 1.0, 2.0, 4.0, 6.0, and 8.0 h following reparixin administration on days 1 and 21. The blood samples were immediately centrifuged at 4 °C, 1200 relative centrifugal force (RCF), for 10 min, and the plasma collected. Each plasma sample was divided into 2 aliquots and stored in 2 pre-labeled polypropylene screw-capped tubes (about 2 mL each) at − 20 °C until analysis. The analysis was performed at the Dompé Analytical Development Laboratories in L’Aquila, Italy.
# [3] = system: CD31; test: CD31 staining of core biopsies by IHC; type: in vivo, human; details: day 21 (16/20 at baseline)
# Method: (§1) All IHC analyses and scoring for extent (0 to 4) and intensity (0 to 3) were performed at the Houston Memorial Hermann Pathology laboratory as previously described. After antigen retrieval (Tris-Cl, pH 9.0), paraffin-embedded sections of sample tumors were incubated for 1 h at room temperature with the following antibodies: anti-human CXCR1 (rabbit polyclonal to CXCR1 - C-terminal, ab137351; Abcam, Cambridge, MA), anti-human CD31 (clone JC70A, #IS610; Dako, Glostrup, Denmark), anti-human p62 (clone SQSTM1/p62, # 5114; Cell Signaling), anti-human AKT (rabbit polyclonal to pan-AKT, # ab8805; Abcam), anti-human FAK (clone pY861, #44-626G; Invitrogen, Qiagen, Carlsbad, CA), anti-human phospho-AKT (clone Ser473 (D9E), #4060; Cell Signaling), anti-human phospho-FAK (clone Y397, #ab4803; Abcam), and anti-human LC3B (clone D11, #3868; Cell Signaling). For the evaluation of extent, the following semi-quantitative score method (0 to 4) was used: 0, no positive cells; 1, 1–25%; 2, 26–50%; 3, 51–75%; and 4, 76–100%.
# [4] = system: P-AKT; test: P-AKT staining of core biopsies by IHC; type: in vivo, human; details: day 21 (16/20 at baseline)
# Method: as §1
# [5] = system: CXCL8 and other cytokines; test: Serum cytokine levels (Milliplex/Luminex); type: in vivo, human; details: day 1 vs day 21
# Method: The concentrations of interleukin (IL)-1β, IL-6, CXCL8, tumor necrosis factor (TNF)-α, granulocyte macrophage colony stimulating factor (GM-CSF), vascular endothelial growth factor (VEGF), and basic fibroblast growth factor (b-FGF) were measured in sera obtained from patients on days 1 and 21 of the study.
# In brief, serum cytokines levels were measured using a method, as previously published. Serum samples were processed and aliquoted within 24 hours for archiving at -80 °C. Samples were analyzed in batch using Milliplex bead kits (EMD Millipore Corporation, Billerica, MA) according to the manufacturer’s protocol with overnight incubations and an additional point added at the low end of the standard curve, and analyzed using a Luminex LX100 (Luminex Corporation, Austin, TX). BioPlex control and analysis software Version 5.0, (BioRad, Hercules, CA) was used.
# [6] = system: monocytes and PMNs; test: Intracellular cytokine production by monocytes and PMNs by flow cytometry; type: in vivo, human; details: without or with activation by LPS and/or CXCL8; data not shown
# Method: Intracellular cytokine production by peripheral blood monocytes and PMNs were assessed using a modification of previously published procedure. Briefly, monocytes and PMNs in whole blood were activated with CXCL8 (10nM), LPS ([…]), and LPS+CXCL8 for 2 hours at 37 °C before the addition of Brefeldin A (BFA) for another 3 hours to block the transportation of the intracellular cytokines from the Golgi to the cell surface. Thereafter, red blood cells were lysed with 1×FACSTM Lysing Solution (BD Biosciences) and the membrane of activated cells permeabilized with 1×FACSTM Perm 2 solution (BD Biosciences). Next, the activated monocytes and PMNs were stained with fluorochrome-conjugated specific antibodies to IL-1β, TNF-α, CXCL8, and IL-6 before the samples were analyzed by flow cytometry. The percentages of monocytes and PMNs that produced IL-1β, TNF-α, CXCL8, and IL-6 were recorded.
# [7] = system: human BC cell lines and xenografts; design: method as in PMID 20051626; details: single agent and in combination with chemotherapy; cited from earlier work
# [8] = female, human, in vivo, po, 1000 mg
structure (smiles),measurement,setting,value
CC(C)Cc1ccc([C@@H](C)C(=O)NS(C)(=O)=O)cc1 [reparixin],patients who experienced ≥ 1 TEAE related to the study drug,"[1]; 1000 mg t.i.d. oral, 21 days",Ten of 20
same,TEAEs leading to discontinuation,"[1]; 1000 mg t.i.d. oral, 21 days, 20 patients",no treatment-emergent adverse events (TEAEs) leading to discontinuation
same,delay of surgery due to study treatment,[1]; 20 patients,No patients had to delay surgery
same,serious adverse reactions,[1]; 20 patients,no serious adverse reactions
same,neutropenia / decrease in absolute neutrophil count (ANC),"[1]; ANC at weekly intervals, 10/20 patients",neither neutropenia of any grade nor any sustained decrease in ANC
same,grade of TEAEs related to the study drug,[1]; all related TEAEs,≤ 2 grade
same,TEAE grade 1 fatigue,[1]; of 20 patients,8 patients
same,TEAE nausea,[1]; of 20 patients,5 patients
same,TEAE related to study drug: fatigue,[1]; of 20 patients,4 patients
same,TEAE related to study drug: flatulence,[1]; of 20 patients,2 patients
same,TEAE related to study drug: headache,[1]; of 20 patients,2 patients
same,TEAE related to study drug: nausea,[1]; of 20 patients,2 patients
same,serious TEAE,"[1]; of 20 patients, unrelated to the study drug",1 patient
same,Tmax,[2]; [8],1 h
same,half-life,[2]; [8],~2 h
same,bioavailability following oral administration,"[2]; human, in vivo, po",high bioavailability
same,"systemic exposure (Cmax and AUClast), change from day 1 to day 21","[2]; human, in vivo, po, 1000 mg",did not change
same,accumulation upon multiple dosing,[2]; oral 1000 mg t.i.d. for 21 days,no accumulation
same,"patients with value of 0 for CD31, extent and intensity",[3],11/15
same,"patients with value of 0 for P-AKT, extent and intensity",[4],11/15
same,"other cytokines (IL-1β, IL-6, TNF-α, GM-CSF, VEGF, b-FGF), change",[5],No statistically significant changes
same,"production of inflammatory cytokines (CXCL8, IL-6, TNF-α, IL-1β) by monocytes and PMNs",[6],No statistically significant difference
same,metastatic spread of human BC cells and CSC (ALDH+ and CD24−/CD44+) content,[7],reduced
